Reference: ChEMBL document CHEMBL5291721, “A preclinical secondary pharmacology resource illuminates target-adverse drug reaction associations of marketed drugs” (Nat Commun, 2023)

What was measured:
Adenosine receptor A3 = target: T1, Adenosine receptor A3 (Homo sapiens, UniProt P0DMS8)
T1 sequence (P0DMS8 whole entry): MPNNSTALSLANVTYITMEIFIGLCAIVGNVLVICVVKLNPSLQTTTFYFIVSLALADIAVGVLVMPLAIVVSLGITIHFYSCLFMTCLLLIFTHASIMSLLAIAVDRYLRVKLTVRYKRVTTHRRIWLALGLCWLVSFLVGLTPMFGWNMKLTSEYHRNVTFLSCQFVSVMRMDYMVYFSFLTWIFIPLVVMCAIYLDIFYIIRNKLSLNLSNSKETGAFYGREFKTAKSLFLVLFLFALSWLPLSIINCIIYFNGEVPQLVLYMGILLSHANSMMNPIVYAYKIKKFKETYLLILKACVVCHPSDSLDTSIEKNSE

[1] = target: T2, Alpha-1A adrenergic receptor (Homo sapiens, UniProt P35348); type: functional, cell-based
T2 sequence (P35348 whole entry): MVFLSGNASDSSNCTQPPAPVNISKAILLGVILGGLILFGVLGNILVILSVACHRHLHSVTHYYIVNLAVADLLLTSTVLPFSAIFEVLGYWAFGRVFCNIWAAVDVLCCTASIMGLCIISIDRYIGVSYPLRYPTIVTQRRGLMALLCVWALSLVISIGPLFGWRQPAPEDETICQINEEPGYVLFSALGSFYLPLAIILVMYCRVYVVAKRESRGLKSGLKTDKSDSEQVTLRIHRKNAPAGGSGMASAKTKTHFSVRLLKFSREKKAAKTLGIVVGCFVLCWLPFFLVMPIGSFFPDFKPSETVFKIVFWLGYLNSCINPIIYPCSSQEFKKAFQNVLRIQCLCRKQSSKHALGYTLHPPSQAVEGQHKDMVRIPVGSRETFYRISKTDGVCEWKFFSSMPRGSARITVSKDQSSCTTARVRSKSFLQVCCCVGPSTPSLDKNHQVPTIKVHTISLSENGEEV

[2] = target: T3, Alpha-2A adrenergic receptor (Homo sapiens, UniProt P08913)
T3 sequence (P08913 whole entry): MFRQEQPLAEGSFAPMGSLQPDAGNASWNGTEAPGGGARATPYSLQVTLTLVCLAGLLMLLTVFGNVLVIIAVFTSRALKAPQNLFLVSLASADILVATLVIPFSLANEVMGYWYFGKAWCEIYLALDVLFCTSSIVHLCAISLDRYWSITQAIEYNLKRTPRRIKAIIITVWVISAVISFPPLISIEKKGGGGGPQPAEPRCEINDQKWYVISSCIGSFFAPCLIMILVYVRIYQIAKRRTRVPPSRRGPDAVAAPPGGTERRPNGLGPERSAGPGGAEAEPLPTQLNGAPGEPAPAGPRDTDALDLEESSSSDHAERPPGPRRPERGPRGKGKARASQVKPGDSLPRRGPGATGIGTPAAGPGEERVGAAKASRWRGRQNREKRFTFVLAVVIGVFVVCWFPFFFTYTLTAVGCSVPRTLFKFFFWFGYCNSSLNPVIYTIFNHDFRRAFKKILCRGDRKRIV

[3] = target: T4, Muscarinic acetylcholine receptor M2 (Homo sapiens, UniProt P08172)
T4 sequence (P08172 whole entry): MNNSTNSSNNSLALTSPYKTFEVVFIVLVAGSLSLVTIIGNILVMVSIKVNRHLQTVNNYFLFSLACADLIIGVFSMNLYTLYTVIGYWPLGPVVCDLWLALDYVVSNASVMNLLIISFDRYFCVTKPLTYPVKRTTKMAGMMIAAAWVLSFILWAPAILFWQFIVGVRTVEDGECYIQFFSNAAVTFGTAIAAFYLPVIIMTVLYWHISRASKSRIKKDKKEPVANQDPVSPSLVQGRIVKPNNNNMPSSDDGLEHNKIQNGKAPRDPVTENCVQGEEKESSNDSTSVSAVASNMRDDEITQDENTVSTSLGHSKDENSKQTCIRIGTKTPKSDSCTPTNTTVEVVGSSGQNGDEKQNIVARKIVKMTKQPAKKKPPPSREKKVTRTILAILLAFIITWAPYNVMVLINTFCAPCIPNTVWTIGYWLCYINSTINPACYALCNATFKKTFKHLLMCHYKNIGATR

Glucocorticoid receptor = target: T5, Glucocorticoid receptor (Homo sapiens, UniProt P04150)
T5 sequence (P04150 whole entry): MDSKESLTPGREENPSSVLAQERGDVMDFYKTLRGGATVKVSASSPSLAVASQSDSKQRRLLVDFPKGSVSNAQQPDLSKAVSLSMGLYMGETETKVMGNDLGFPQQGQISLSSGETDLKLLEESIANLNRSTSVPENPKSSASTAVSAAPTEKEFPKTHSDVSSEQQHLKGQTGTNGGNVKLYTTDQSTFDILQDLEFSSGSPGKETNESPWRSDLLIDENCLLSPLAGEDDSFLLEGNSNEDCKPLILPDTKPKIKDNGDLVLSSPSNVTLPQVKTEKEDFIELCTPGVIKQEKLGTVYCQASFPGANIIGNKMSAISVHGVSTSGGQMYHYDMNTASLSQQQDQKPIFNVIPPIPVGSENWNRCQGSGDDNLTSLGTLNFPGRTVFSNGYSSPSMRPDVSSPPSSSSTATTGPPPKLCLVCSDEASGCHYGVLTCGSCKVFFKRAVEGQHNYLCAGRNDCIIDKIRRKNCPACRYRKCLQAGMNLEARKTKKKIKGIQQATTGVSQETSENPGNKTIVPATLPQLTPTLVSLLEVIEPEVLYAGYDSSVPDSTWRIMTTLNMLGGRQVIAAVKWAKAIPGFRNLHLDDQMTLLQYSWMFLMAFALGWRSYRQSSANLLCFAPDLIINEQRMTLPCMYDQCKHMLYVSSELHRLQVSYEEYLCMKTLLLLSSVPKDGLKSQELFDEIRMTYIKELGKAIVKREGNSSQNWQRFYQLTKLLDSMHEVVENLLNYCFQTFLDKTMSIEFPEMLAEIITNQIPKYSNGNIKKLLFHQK

[4] = target: Prostaglandin G/H synthase 1 (Homo sapiens, UniProt P23219); type: functional
Chain of Prostaglandin G/H synthase 1 (P23219 whole entry): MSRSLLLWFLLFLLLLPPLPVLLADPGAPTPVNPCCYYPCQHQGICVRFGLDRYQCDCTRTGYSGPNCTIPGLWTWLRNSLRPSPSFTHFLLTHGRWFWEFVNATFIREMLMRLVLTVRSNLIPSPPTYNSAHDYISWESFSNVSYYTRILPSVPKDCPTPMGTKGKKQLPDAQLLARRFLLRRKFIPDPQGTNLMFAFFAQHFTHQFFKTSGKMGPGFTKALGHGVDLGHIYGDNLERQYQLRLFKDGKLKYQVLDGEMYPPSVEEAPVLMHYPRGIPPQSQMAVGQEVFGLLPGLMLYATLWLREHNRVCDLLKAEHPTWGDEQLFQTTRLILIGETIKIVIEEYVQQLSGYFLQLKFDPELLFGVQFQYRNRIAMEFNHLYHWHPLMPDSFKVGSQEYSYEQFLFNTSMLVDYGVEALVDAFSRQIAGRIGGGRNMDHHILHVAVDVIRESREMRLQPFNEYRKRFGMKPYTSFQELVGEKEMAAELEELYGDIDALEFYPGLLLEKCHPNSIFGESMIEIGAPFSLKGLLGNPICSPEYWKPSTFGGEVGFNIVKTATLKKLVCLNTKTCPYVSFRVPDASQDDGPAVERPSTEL

Thromboxane A2 receptor = target: T6, Thromboxane A2 receptor (Homo sapiens, UniProt P21731); type: functional, cell-based
T6 sequence (P21731 whole entry): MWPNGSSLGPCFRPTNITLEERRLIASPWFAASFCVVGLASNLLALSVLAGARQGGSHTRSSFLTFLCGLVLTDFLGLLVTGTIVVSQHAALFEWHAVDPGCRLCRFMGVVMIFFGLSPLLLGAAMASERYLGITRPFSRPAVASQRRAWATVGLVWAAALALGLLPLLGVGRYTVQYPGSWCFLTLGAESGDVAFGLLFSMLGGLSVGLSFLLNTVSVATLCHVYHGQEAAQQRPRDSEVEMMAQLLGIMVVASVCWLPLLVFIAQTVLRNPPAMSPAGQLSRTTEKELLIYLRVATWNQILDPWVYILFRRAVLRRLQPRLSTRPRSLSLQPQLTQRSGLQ

[5] = target: Sodium-dependent dopamine transporter (Homo sapiens, UniProt Q01959)
Chain of Sodium-dependent dopamine transporter (Q01959 whole entry): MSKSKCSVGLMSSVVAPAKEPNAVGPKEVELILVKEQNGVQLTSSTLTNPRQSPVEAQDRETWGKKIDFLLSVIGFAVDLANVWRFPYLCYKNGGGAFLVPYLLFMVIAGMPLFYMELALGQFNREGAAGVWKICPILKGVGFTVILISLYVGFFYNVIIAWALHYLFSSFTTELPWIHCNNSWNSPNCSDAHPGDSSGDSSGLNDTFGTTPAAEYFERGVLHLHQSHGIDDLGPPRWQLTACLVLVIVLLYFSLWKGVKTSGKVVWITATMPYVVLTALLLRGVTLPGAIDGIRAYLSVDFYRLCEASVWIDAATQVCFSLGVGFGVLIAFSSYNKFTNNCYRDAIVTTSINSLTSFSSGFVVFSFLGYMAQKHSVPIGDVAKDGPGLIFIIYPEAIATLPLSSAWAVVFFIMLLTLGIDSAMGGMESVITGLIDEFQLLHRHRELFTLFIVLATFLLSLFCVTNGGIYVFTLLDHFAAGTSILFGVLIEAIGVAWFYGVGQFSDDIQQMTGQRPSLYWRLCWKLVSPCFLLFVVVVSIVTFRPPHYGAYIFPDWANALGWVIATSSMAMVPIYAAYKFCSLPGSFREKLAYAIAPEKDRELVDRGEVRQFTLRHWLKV
Also: assay procedure not described here.

SMILES | AC50 (Adenosine receptor A3) | AC50 [1] | AC50 [2] | AC50 [3] | AC50 (Glucocorticoid receptor) | AC50 [4] | AC50 (Thromboxane A2 receptor) | AC50 [5]
CCOC(=O)[C@H](CCc1ccccc1)N[C@@H](C)C(=O)N1Cc2ccccc2C[C@H]1C(=O)O | > 30 µM | > 30 µM | > 30 µM | > 30 µM | > 30 µM | > 30 µM | > 30 µM | > 10 µM
CN(C)CCC=C1c2ccccc2CCc2ccccc21 [AMITRIPTYLINE] | > 30 µM | > 30 µM | 1.27 µM | – | > 30 µM | > 30 µM | 26.3 µM | 13.8 µM
CC(=O)Oc1ccccc1C(=O)O [ASPIRIN] | > 30 µM | > 30 µM | > 30 µM | > 30 µM | > 30 µM | – | > 30 µM | > 30 µM
CN(C)CCCC1(c2ccc(F)cc2)OCc2cc(C#N)ccc21 (configuration not stated) [CITALOPRAM] | > 30 µM | – | > 30 µM | – | > 30 µM | > 30 µM | > 30 µM | –
NCC1(CC(=O)O)CCCCC1 [GABAPENTIN] | > 30 µM | > 30 µM | > 30 µM | > 30 µM | > 30 µM | > 30 µM | > 30 µM | > 30 µM
CC1=C(C/C=C(\C)CCC[C@H](C)CCC[C@H](C)CCCC(C)C)C(=O)c2ccccc2C1=O [PHYTONADIONE] | > 30 µM | – | > 30 µM | > 30 µM | – | > 30 µM | > 30 µM | –
NC(=O)C1(N2CCCCC2)CCN(CCCC(=O)c2ccc(F)cc2)CC1 [PIPAMPERONE] | > 30 µM | – | 5.47 µM | > 30 µM | – | > 30 µM | > 30 µM | –
CC(C)(Oc1ccc(Cl)cc1)C(=O)NC(=O)NCN1CCOCC1 [PLAFIBRIDE] | > 30 µM | – | > 30 µM | > 30 µM | – | > 30 µM | > 30 µM | –
CC(C)NC[C@H](O)COc1ccc(O)cc1 [PRENALTEROL] | > 30 µM | – | > 30 µM | > 30 µM | – | 8.99 µM | > 30 µM | –
CN1CCC(N(Cc2cccs2)c2ccccc2)CC1 [THENALIDINE] | > 30 µM | – | 8.45 µM | 0.699 µM | – | > 30 µM | > 30 µM | –
Cc1ccc(C(C)C)c(O)c1 [THYMOL] | > 30 µM | – | > 30 µM | > 30 µM | – | > 30 µM | > 30 µM | –
CN(C)CCN(Cc1ccccc1)c1ccccn1 [TRIPELENNAMINE] | > 30 µM | – | 3.08 µM | 4.72 µM | > 10 µM | > 30 µM | > 30 µM | 1.3 µM
Cc1cccc(C)c1NC(=O)c1cc(S(N)(=O)=O)c(Cl)cc1O [XIPAMIDE] | > 30 µM | – | > 30 µM | > 30 µM | – | > 30 µM | > 30 µM | –
